The subject of the test is human patients. The test is described as follows: Administration to human patients, efficacy as a cognition enhancer. It counts as in vivo. As to the method:
Compound X has active doses around 5-125 microgramme (μg) (calculated as free base). It has been found through administration to human patients that efficacy as a cognition enhancer may be obtained at daily doses below 0.01 mg/kg more particularly 0.003 mg/kg and below, for example 0.0001-0.003 mg/kg, such as 0.00035-0.003 mg/kg. 0.0007-0.003 mg/kg, 0.0001-0.0007 mg/kg or 0.00035-0.002 mg/kg.

The source of these data is US6468560B2, “Controlled release dosage form of [R-(Z)]-α-(methoxyimino)-α-(1-azabicyclo[2.2.2]oct-3yl) acetonitrile monohydrochloride” (SmithKline Beecham p.l.c., priority 1996, dated 2002).

Each structure is given as a SMILES string.

`CO/N=C(\C#N)[C@H]1CN2CCC1CC2.Cl` [Compound X, [R-(Z)]-α-(methoxyimino)-α-(1-azabicyclo [2.2.2]oct-3-yl)acetonitrile monohydrochloride]: the active doses (calculated as free base) is 5 to 125 µg. In addition, the “daily doses at which efficacy as a cognition enhancer may be obtained” value (human patients, daily dose) was “below 0.01 mg/kg”.
